Results taken from ChEMBL document CHEMBL1141725, “DNA-templated click chemistry for creation of novel DNA binding molecules” (Bioorg Med Chem Lett, 2008).

What was measured:
[1] = Stabilization of double strand AATT12 DNA assessed as change in melting temperature
[2] = Binding affinity to double strand AATT12 DNA by fluorescence titration
[3] = Binding affinity to double strand CGCG12 DNA by fluorescence titration
[4] = Stabilization of double strand CGCG12 DNA assessed as change in melting temperature

Row | Structure (SMILES) | ΔTm [1] [°C] | Ks [2] [×10⁵ /M] | Ks [3] [×10⁵ /M] | ΔTm [4] [°C]
1 | N=C(N)NCCC[C@@H](CN1CCC[C@H]1C(N)=O)NC(=O)CNC(=O)[C@H](CCCNC(=N)N)NC(=O)[C@@H]1CCCN1C(=O)CCCc1cn(CCCNc2c3ccccc3nc3ccccc23)nn1 | 8.1 | 7.3 | 3.6 | 3.9
2 | C#CCCCC(=O)N1CCC[C@H]1C(=O)N[C@@H](CCCNC(=N)N)C(=O)NCC(=O)N[C@@H](CCCNC(=N)N)CN1CCC[C@H]1C(N)=O | 0 | 0.01 | – | 0
3 | [N-]=[N+]=NCCCNc1c2ccccc2nc2ccccc12 | 3.1 | 1.6 | 2 | 2
